According to patent US10584303B2, “Stabilization of isothiazolones in aqueous compositions” (DDP Specialty Electronic Materials US, Inc., priority 2014, dated 2020):
Like-named read-outs stand apart in the source and are kept apart here.

Legend:
[1] = 168 h
Method: (§1) The MWF samples dosed with biocide were analyzed for active level by high pressure liquid chromatography (HPLC) at time 0. The samples were then vortexed and split into a sample that was aged at room temperature and a sample that was aged at 40° C. Each week an aliquot of the aged samples was evaluated by HPLC for the level of active remaining. Samples where no active was found for two consecutive weeks were no longer analyzed.

[2] = Stability of MIT: 25% amine and 10 ppm MIT (HPLC); details: extremely high ratios of amine:isothiazolone (25% amine, 10 ppm MIT); room temperature and 40° C.
Method: as §1

stability of MIT compared with other amines [2]	Structure (SMILES)	remaining active ingredient MIT (336 h) [wt %]	remaining active ingredient MIT [1] [wt %]	remaining active ingredient MIT (504 h) [wt %]
	NCCO [Amine F, 2-aminoethanol, reference compound]	108	0	
	CC(O)CN(CC(C)O)CC(C)O (stereo not drawn) [Amine G, triisopropanol amine]	110		108
much better stability	CCC(O)CN(CCO)CCO (stereo not drawn) [Amine A, 1-[bis(hydroxylethyl)amino]-2-butanol]			
much better stability	CCC(O)CN(CCO)CC(O)CC (stereo not drawn) [Amine D, N,N-bis(2-hydroxybutyl)-2-amino ethanol]			
